Earlier results, collected in US8765149B2, “Low-oil pharmaceutical emulsion compositions comprising progestogen” (Besins Healthcare Luxembourg Sarl, priority 2010, dated 2014).

Test system: TBI patients
Settings: two recent clinical trials

## CC(=O)[C@H]1CC[C@H]2[C@@H]3CCC4=CC(=O)CC[C@]4(C)[C@H]3CC[C@]12C [progesterone, pregn-4-ene-3,20-dione]
  mortality of TBI patients: decreased mortality
  safety in TBI patients: safe and well tolerated
